Experimental data published in patent publication US20240067632A1, “WEE1 Degrading Compounds and Uses Thereof” (Bristol-Myers Squibb Company, priority 2022, published 2024).
Where two headings read alike, the source gives them in different places.

Key:
WEE1 = target: T1, WEE1 (Homo sapiens, UniProt P30291+Q96SW2); test: WEE1-ePL degradation assay (LentiX-WEE1-ePL-GSPT1-ND cells, InCELL Hunter luminescence, 4 h); format: cell-based; conditions: 293T-LentiX WEE1-ePL cells; for DC50: read-out: 293T-LentiX WEE1-ePL Degradation 4 hr (EC50)
T1 construct: C-terminal ePL-tagged (DiscoverX, Fremont, CA) full-length WEE1 expression construct; expressed in transfected cells; host or cells: LentiX-HEK293T (Invitrogen), lentiviral transduction; co-expressing GSPT1-GN (G576N, lacking the first 158 amino acids)
Summary of the method: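 First, compounds were pre-plated as 10-point, 3-fold dilutions (top 1 uM or 10 uM) with DMSO control; next, WEE1-ePL-expressing HEK293T cells were added and held 4 h at 37 °C; finally, InCELL Hunter reagent was applied for 30 min before luminescence reading. A 4PL fit gave EC50 and Ymin.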

MKN45 cells = test: MKN45 cell proliferation assay (Cell-Titer-Glo, 120 h); format: cell-based; conditions: for EC50: Homo sapiens, MKN-45, 120 h, Cell-Titer-Glo, read-out: MKN45 Cell Prolif. 120 hr (EC50); for MKN45 Cell Prolif. 120 hr (Ymin-Obs): minimal percent of DMSO control observed in the concentrations tested
Summary of the method: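 Cells seeded at 400/well onto pre-printed 10-point half-log dilutions (top 1 or 10 uM, 0.1% DMSO final), in triplicate, and grown 120 h at 37 C. Viability by Cell-Titer-Glo luminescence, blank-subtracted and normalised to DMSO; EC50 from four-parameter logistic fit, with observed minimal % of control recorded as Ymin-obs.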

[1] = lower limit of the fit (0 = luciferase inhibitor, Ymax = DMSO control)
[2] = lower limit of the fit (Ymin=0 luciferase inhibitor, Ymax DMSO control)

| Compound | 293T-LentiX WEE1-ePL Degradation 4 hr (Ymin) (WEE1; [1]) | DC50 (WEE1) | EC50 (MKN45 cells; growth inhibition) | 293T-LentiX WEE1-ePL Degradation 4 hr (Ymin) (WEE1; [2]) | EC50 (MKN45 cells) | MKN45 Cell Prolif. 120 hr (Ymin-Obs) (MKN45 cells) |
| --- | --- | --- | --- | --- | --- | --- |
| O=C1CCC(N2Cc3cc(O[C@H]4CCN(Cc5ccc6nc(N7C[C@H]8C[C@@H]7CO8)ncc6c5)C4)ccc3C2=O)C(=O)N1 (stereo partly drawn) [3-(5-{[(3S)-1-({2-[(1R,4R)-2-oxa-5-azabicyclo[2.2.1]heptan-5-yl]quinazolin-6-yl}methyl)pyrrolidin-3-yl]oxy}-1-oxo-2,3-dihydro-1H-isoindol-2-yl)piperidine-2,6-dione] | 39 | 80.1 nM | 76.6 nM | – | – | 16.57 |
| O=C1CCC(N2Cc3cc(O[C@H]4CCN(Cc5ccc6nc(N7[C@@H]8COC[C@H]7C8)ncc6c5)C4)ccc3C2=O)C(=O)N1 (stereo partly drawn) [3-(5-{[(3S)-1-({2-[(1R,5S)-3-oxa-6-azabicyclo[3.1.1]heptan-6-yl]quinazolin-6-yl}methyl)pyrrolidin-3-yl]oxy}-1-oxo-2,3-dihydro-1H-isoindol-2-yl)piperidine-2,6-dione] | 38 | 117 nM | 17 nM | – | – | 10.76 |
| O=C1CCC(N2Cc3cc(O[C@H]4CCN(Cc5ccc6nc(N7[C@@H]8CC[C@H]7COC8)ncc6c5)C4)ccc3C2=O)C(=O)N1 (stereo partly drawn) [3-(5-{[(3S)-1-({2-[(1R,5S)-3-oxa-8-azabicyclo[3.2.1]octan-8-yl]quinazolin-6-yl}methyl)pyrrolidin-3-yl]oxy}-1-oxo-2,3-dihydro-1H-isoindol-2-yl)piperidine-2,6-dione] | 33 | 101 nM | 24.9 nM | – | – | 8.88 |
| O=C1CCC(N2Cc3cc(O[C@H]4CCN(Cc5ccc6nc(N7[C@@H]8CC[C@H]7COC8)ccc6c5)C4)ccc3C2=O)C(=O)N1 (stereo partly drawn) [3-(5-{[(3S)-1-({2-[(1R,5S)-3-oxa-8-azabicyclo[3.2.1]octan-8-yl]quinolin-6-yl}methyl)pyrrolidin-3-yl]oxy}-1-oxo-2,3-dihydro-1H-isoindol-2-yl)piperidine-2,6-dione] | 28 | 4.47 nM | 9.72 nM | – | – | 11.965 |
| O=C1CCC(N2Cc3cc(O[C@H]4CCN(Cc5ccc6nc(N7C[C@H]8C[C@@H](C7)O8)ncc6c5)C4)ccc3C2=O)C(=O)N1 (stereo partly drawn) [3-(5-{[(3S)-1-({2-[(1R,5S)-6-oxa-3-azabicyclo[3.1.1]heptan-3-yl]quinazolin-6-yl}methyl)pyrrolidin-3-yl]oxy}-1-oxo-2,3-dihydro-1H-isoindol-2-yl)piperidine-2,6-dione] | 39 | 20.2 nM | 16.4 nM | – | – | 13.42 |
| O=C1CCC(N2Cc3cc(O[C@H]4CCN(Cc5ccc6nc(N7C[C@H]8C[C@@H](C7)O8)ccc6c5)C4)ccc3C2=O)C(=O)N1 (stereo partly drawn) [3-(5-{[(3S)-1-({2-[(1R,5S)-6-oxa-3-azabicyclo[3.1.1]heptan-3-yl]quinolin-6-yl}methyl)pyrrolidin-3-yl]oxy}-1-oxo-2,3-dihydro-1H-isoindol-2-yl)piperidine-2,6-dione] | 38 | 1.98 nM | 3.19 nM | – | – | 9.79 |
| O=C1CCC(N2Cc3cc(O[C@H]4CCN(Cc5ccc6nc(N7C[C@H]8CC[C@@H](C7)O8)ncc6c5)C4)ccc3C2=O)C(=O)N1 (stereo partly drawn) [3-(5-{[(3S)-1-({2-[(1R,5S)-8-oxa-3-azabicyclo[3.2.1]octan-3-yl]quinazolin-6-yl}methyl)pyrrolidin-3-yl]oxy}-1-oxo-2,3-dihydro-1H-isoindol-2-yl)piperidine-2,6-dione] | 35 | 45.9 nM | 15.6 nM | – | – | 11.04 |

The remaining compounds from weak to strong by DC50 (WEE1), led by results:

| 293T-LentiX WEE1-ePL Degradation 4 hr (Ymin) (WEE1; [1]) | DC50 (WEE1) | EC50 (MKN45 cells; growth inhibition) | 293T-LentiX WEE1-ePL Degradation 4 hr (Ymin) (WEE1; [2]) | EC50 (MKN45 cells) | Compound | MKN45 Cell Prolif. 120 hr (Ymin-Obs) (MKN45 cells) |
| --- | --- | --- | --- | --- | --- | --- |
| – | 21.5 nM | – | 32.43 | 428 nM | CO[C@@H]1CCCC[C@H]1c1ccc2cc(CN3CC[C@H](Oc4ccc5c(c4)CN(C4CCC(=O)NC4=O)C5=O)C3)ccc2n1 (stereo partly drawn) [3-(5-{[(3S)-1-({2-[(1S,2R)-2-methoxycyclohexyl]quinolin-6-yl}methyl)pyrrolidin-3-yl]oxy}-1-oxo-2,3-dihydro-1H-isoindol-2-yl)piperidine-2,6-dione] | 51.58 |
| 37 | 8.62 nM | 11.2 nM | – | – | O=C1CCC(N2Cc3cc(O[C@H]4CCN(Cc5ccc6nc(N7[C@@H]8COC[C@H]7C8)ccc6c5)C4)ccc3C2=O)C(=O)N1 (stereo partly drawn) [3-(5-{[(3S)-1-({2-[(1R,5S)-3-oxa-6-azabicyclo[3.1.1]heptan-6-yl]quinolin-6-yl}methyl)pyrrolidin-3-yl]oxy}-1-oxo-2,3-dihydro-1H-isoindol-2-yl)piperidine-2,6-dione] | 9.645 |
| 37 | 6.5 nM | 6.42 nM | – | – | O=C1CCC(N2Cc3cc(O[C@H]4CCN(Cc5ccc6nc(N7C[C@H]8CC[C@@H](C7)O8)ccc6c5)C4)ccc3C2=O)C(=O)N1 (stereo partly drawn) [3-(5-{[(3S)-1-({2-[(1R,5S)-8-oxa-3-azabicyclo[3.2.1]octan-3-yl]quinolin-6-yl}methyl)pyrrolidin-3-yl]oxy}-1-oxo-2,3-dihydro-1H-isoindol-2-yl)piperidine-2,6-dione] | 11.085 |
| 33 | 5.67 nM | 6.19 nM | – | – | O=C1CCC(N2Cc3cc(O[C@H]4CCN(Cc5ccc6nc(N7C[C@H]8C[C@@H]7CO8)ccc6c5)C4)ccc3C2=O)C(=O)N1 (stereo partly drawn) [3-(5-{[(3S)-1-({2-[(1R,4R)-2-oxa-5-azabicyclo[2.2.1]heptan-5-yl]quinolin-6-yl}methyl)pyrrolidin-3-yl]oxy}-1-oxo-2,3-dihydro-1H-isoindol-2-yl)piperidine-2,6-dione] | 9.745 |
| – | 5.38 nM | – | 27.68 | 11.9 nM | COC[C@H]1CCC[C@@H]1c1ccc2cc(CN3CC[C@H](Oc4ccc5c(c4)CN(C4CCC(=O)NC4=O)C5=O)C3)ccc2n1 (stereo partly drawn) [3-(5-{[(3S)-1-({2-[(1S,2S)-2-(methoxymethyl)cyclopentyl]quinolin-6-yl}methyl)pyrrolidin-3-yl]oxy}-1-oxo-2,3-dihydro-1H-isoindol-2-yl)piperidine-2,6-dione] | 11.37 |
| 28.33 | 3.2 nM | 0.741 nM | – | – | CO[C@H]1CC[C@@H](c2ccc3cc(CN4CC[C@H](Oc5ccc6c(c5)CN(C5CCC(=O)NC5=O)C6=O)C4)ccc3n2)C1 (stereo partly drawn) [3-(5-{[(3S)-1-({2-[(1R,3S)-3-methoxycyclopentyl]quinolin-6-yl}methyl)pyrrolidin-3-yl]oxy}-1-oxo-2,3-dihydro-1H-isoindol-2-yl)piperidine-2,6-dione] | 7.233 |
| – | 3.03 nM | – | 21.7 | 1.43 nM | COC[C@H]1CCCC[C@@H]1c1ccc2cc(CN3CC[C@H](Oc4ccc5c(c4)CN(C4CCC(=O)NC4=O)C5=O)C3)ccc2n1 (stereo partly drawn) [3-(5-{[(3S)-1-({2-[(1S,2S)-2-(methoxymethyl)cyclohexyl]quinolin-6-yl}methyl)pyrrolidin-3-yl]oxy}-1-oxo-2,3-dihydro-1H-isoindol-2-yl)piperidine-2,6-dione] | 11.37 |
| – | 3.01 nM | – | 37.17 | 12 nM | CO[C@@H]1CCC[C@H]1c1ccc2cc(CN3CC[C@H](Oc4ccc5c(c4)CN(C4CCC(=O)NC4=O)C5=O)C3)ccc2n1 (stereo partly drawn) [3-(5-{[(3S)-1-({2-[(1S,2R)-2-methoxycyclopentyl]quinolin-6-yl}methyl)pyrrolidin-3-yl]oxy}-1-oxo-2,3-dihydro-1H-isoindol-2-yl)piperidine-2,6-dione] | 13.63 |
| – | 1.63 nM | – | 27.12 | 1.73 nM | COC[C@@H]1CCC[C@H](c2ccc3cc(CN4CC[C@H](Oc5ccc6c(c5)CN(C5CCC(=O)NC5=O)C6=O)C4)ccc3n2)C1 (stereo partly drawn) [3-(5-{[(3S)-1-({2-[(1S,3R)-3-(methoxymethyl)cyclohexyl]quinolin-6-yl}methyl)pyrrolidin-3-yl]oxy}-1-oxo-2,3-dihydro-1H-isoindol-2-yl)piperidine-2,6-dione] | 10.23 |
| – | 0.334 nM | – | 26.36 | 5.76 nM | COC[C@@H]1CCC[C@@H]1c1ccc2cc(CN3CC[C@H](Oc4ccc5c(c4)CN(C4CCC(=O)NC4=O)C5=O)C3)ccc2n1 (stereo partly drawn) [3-(5-{[(3S)-1-({2-[(1S,2R)-2-(methoxymethyl)cyclopentyl]quinolin-6-yl}methyl)pyrrolidin-3-yl]oxy}-1-oxo-2,3-dihydro-1H-isoindol-2-yl)piperidine-2,6-dione] | 11.34 |
